Reference: the supplement of paper PMC10307832

Columns and labels:
Test in all cases: relative viability (nuclei count vs DMSO), 5 days (fraction); higher = more cells survive
A-427 = test system: A-427
In short: (§1)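 Medians of duplicate plates are given as relative viability. That measure is the nuclei count in treated wells divided by the count in vehicle wells. Counts were taken on 4× images of lung cancer cell lines in 1536-well plates, 5 days after pin-tool dosing the day after seeding with one drug alone or a fixed anchor-drug dose plus five library-drug doses (not always all listed) in √10 steps.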

COR-L23 = test system: COR-L23
In short: as §1

ChaGo-K-1 = test system: ChaGo-K-1
In short: as §1

EMC-BAC-2 = test system: EMC-BAC-2
In short: as §1

HARA = test system: HARA
In short: as §1

HCC-15 = test system: HCC-15
In short: as §1

HCC-366 = test system: HCC-366
In short: as §1

HCC-78 = test system: HCC-78
In short: as §1

LC-2-ad = test system: LC-2-ad
In short: as §1

LK-2 = test system: LK-2
In short: as §1

NCI-H1650 = test system: NCI-H1650
In short: as §1

NCI-H1734 = test system: NCI-H1734
In short: as §1

NCI-H1793 = test system: NCI-H1793
In short: as §1

NCI-H1944 = test system: NCI-H1944
In short: as §1

NCI-H1993 = test system: NCI-H1993
In short: as §1

NCI-H2009 = test system: NCI-H2009
In short: as §1

NCI-H2023 = test system: NCI-H2023
In short: as §1

NCI-H2228 = test system: NCI-H2228
In short: as §1

NCI-H23 = test system: NCI-H23
In short: as §1

NCI-H2405 = test system: NCI-H2405
In short: as §1

NCI-H838 = test system: NCI-H838
In short: as §1

SK-LU-1 = test system: SK-LU-1
In short: as §1

UMC-11 = test system: UMC-11
In short: as §1

CC(C)Oc1cc(Nc2nc(N[C@@H](C)c3ccc(F)cn3)ncc2Cl)n[nH]1 [AZ23] + CC1(C)CCC(c2ccc(Cl)cc2)=C(CN2CCN(c3ccc(C(=O)NS(=O)(=O)c4ccc(N[C@H](CCN5CCOCC5)CSc5ccccc5)c(S(=O)(=O)C(F)(F)F)c4)cc3)CC2)C1 [Navitoclax] (partner 0.5 µM)
relative viability (A-427; first compound 0.01 µM): 0.941
relative viability (A-427; first compound 0.03162 µM): 1.06
relative viability (A-427; first compound 0.3162 µM): 0.864
relative viability (COR-L23; first compound 0.01 µM): 0.839
relative viability (COR-L23; first compound 0.03162 µM): 1.11
relative viability (COR-L23; first compound 0.3162 µM): 1.05
relative viability (ChaGo-K-1; first compound 0.01 µM): 0.782
relative viability (ChaGo-K-1; first compound 0.03162 µM): 1.23
relative viability (ChaGo-K-1; first compound 0.3162 µM): 0.949
relative viability (EMC-BAC-2; first compound 0.01 µM): 1.59
relative viability (EMC-BAC-2; first compound 0.03162 µM): 1.25
relative viability (EMC-BAC-2; first compound 0.3162 µM): 1.19
relative viability (HARA; first compound 0.01 µM): 0.973
relative viability (HARA; first compound 0.03162 µM): 1.16
relative viability (HARA; first compound 0.3162 µM): 1.16
relative viability (HCC-15; first compound 0.01 µM): 0.744
relative viability (HCC-15; first compound 0.03162 µM): 0.798
relative viability (HCC-15; first compound 0.3162 µM): 0.71
relative viability (HCC-366; first compound 0.01 µM): 1.3
relative viability (HCC-366; first compound 0.03162 µM): 0.998
relative viability (HCC-366; first compound 0.3162 µM): 0.883
relative viability (HCC-78; first compound 0.01 µM): 0.617
relative viability (HCC-78; first compound 0.03162 µM): 0.662
relative viability (HCC-78; first compound 0.3162 µM): 0.488
relative viability (LC-2-ad; first compound 0.01 µM): 0.386
relative viability (LC-2-ad; first compound 0.03162 µM): 0.474
relative viability (LC-2-ad; first compound 0.3162 µM): 0.415
relative viability (LK-2; first compound 0.01 µM): 0.653
relative viability (LK-2; first compound 0.03162 µM): 0.915
relative viability (LK-2; first compound 0.3162 µM): 0.909
relative viability (NCI-H1650; first compound 0.01 µM): 0.925
relative viability (NCI-H1650; first compound 0.03162 µM): 1.28
relative viability (NCI-H1650; first compound 0.3162 µM): 1.05
relative viability (NCI-H1734; first compound 0.01 µM): 0.905
relative viability (NCI-H1734; first compound 0.03162 µM): 0.973
relative viability (NCI-H1734; first compound 0.3162 µM): 0.721
relative viability (NCI-H1793; first compound 0.01 µM): 0.425
relative viability (NCI-H1793; first compound 0.03162 µM): 0.302
relative viability (NCI-H1793; first compound 0.3162 µM): 0.341
relative viability (NCI-H1944; first compound 0.01 µM): 0.985
relative viability (NCI-H1944; first compound 0.03162 µM): 1.07
relative viability (NCI-H1944; first compound 0.3162 µM): 1.01
relative viability (NCI-H1993; first compound 0.01 µM): 0.688
relative viability (NCI-H1993; first compound 0.3162 µM): 0.916
relative viability (NCI-H2009; first compound 0.01 µM): 1.16
relative viability (NCI-H2009; first compound 0.03162 µM): 1.18
relative viability (NCI-H2009; first compound 0.3162 µM): 1.19
relative viability (NCI-H2023; first compound 0.03162 µM): 1.1
relative viability (NCI-H2023; first compound 0.3162 µM): 1.05
relative viability (NCI-H2228; first compound 0.01 µM): 0.848
relative viability (NCI-H2228; first compound 0.03162 µM): 0.963
relative viability (NCI-H2228; first compound 0.3162 µM): 0.709
relative viability (NCI-H23; first compound 0.03162 µM): 0.981
relative viability (NCI-H23; first compound 0.3162 µM): 0.69
relative viability (NCI-H2405; first compound 0.01 µM): 0.8
relative viability (NCI-H2405; first compound 0.03162 µM): 0.915
relative viability (NCI-H2405; first compound 0.3162 µM): 0.781
relative viability (NCI-H838; first compound 0.01 µM): 1.15
relative viability (NCI-H838; first compound 0.03162 µM): 1.45
relative viability (NCI-H838; first compound 0.3162 µM): 1.19
relative viability (SK-LU-1; first compound 0.01 µM): 0.457
relative viability (SK-LU-1; first compound 0.03162 µM): 1.38
relative viability (SK-LU-1; first compound 0.3162 µM): 0.858
relative viability (UMC-11; first compound 0.01 µM): 0.271
relative viability (UMC-11; first compound 0.03162 µM): 0.334
relative viability (UMC-11; first compound 0.3162 µM): 0.304
